Assay results as given in patent publication US10526358B2, “Crystalline forms” (GRUNENTHAL GMBH, priority 2016, dated 2020).

Assays:
[1] = in vivo; cited from earlier work
[2] = FDA SBA; cited from earlier work
[3] = FDA SBA; cited from earlier work; remark: listed apart in the source
[4] = cited from earlier work
[5] = apparent water solubility at room temperature; type: physicochemical

## O=P(O)(O)C(O)(Cn1ccnc1)P(=O)(O)O [Zoledronic acid, (1-hydroxy-2-imidazol-1-yl-1-phosphono-ethyl)phosphonic acid]
[1]
  gastric and intestinal irritations: severe gastric and intestinal irritations
[2]
  permeability in the GI tract: poor permeability
[3]
  oral bioavailability: approximately 1%
[4]; 0.1 N HCl
  solubility in 0.1 N HCl solution: sparingly soluble
[4]; 0.1 N NaOH
  solubility in 0.1 N NaOH: freely soluble
[4]; various organic solvents
  solubility in various organic solvents: practically insoluble
[4]; water
  solubility in water: sparingly soluble
[5]
  apparent water solubility: few
